Consider 4 molecules from US20230363391A1, “Biocidal Composition and Method” (ARXADA AG, priority 2020, published 2023).

Marks after values point to notes of the source that are not given here.

For data set [1], the system named is Pseudomonas aeruginosa, Escherichia coli, Enterobacter cloacae, Acinetobacter calcoaceticus. As to the kind of experiment: In-can challenge test, modified ASTM D2574-97 (Table 1). The data set is classed as cell-based. As to the method: (§1) Various formulations were made in accordance with the present disclosure and tested for performance. In one challenge test, the efficacy of dicyandiamide as an adjuvant for BIT was evaluated using modified ASTM D2574-97 “Standard Test Method for Resistance of Emulsion Paints in the Container to Attack by Microorganisms” with higher inoculation volumes and frequency. A standard consortium of four (4) bacterial populations: Pseudomonas aeruginosa, Escherichia coli, Enterobacter cloacae, Acinetobacter calcoaceticus was used to inoculate three (3) different samples at ten percent (10%), five percent (5%), or two and a half percent (2.5%) of the sample size. At twenty-four (24) hours and seventy-two (72) hours after each inoculation, a portion of each sample was streaked on tryptic soy agar. A dilution plate count was performed at the last seventy-two (72) hour time point.
(§2) Example data provided in Tables 1, 2 and 3 should be understood as indicating the degree of microbial growth observed for a given data point unless otherwise indicated. In particular, each plate is ranked from 0 through 5c (i.e., one of 0, 1, 2, 3, 4, 5, or 5c) according to the degree of observed microbial growth, where: a “0” ranking indicates no growth; a “1” ranking indicates one (1) through five (5) observed colony forming unit (cfu), i.e., the plate was very lightly contaminated; a “2” ranking indicates six (6) through fifteen (15) cfu, i.e., the plate was lightly contaminated; a “3” ranking indicates sixteen (16) through thirty (30) cfu, i.e., the plate was moderately contaminated; a “4” ranking indicates thirty-one (31) through forty-five (45) cfu, i.e., the plate was heavily contaminated; a “5” ranking indicates greater than (45) cfu, i.e., the plate was severely contaminated; and a “5c” ranking indicates confluent growth, i.e., the plate was very severely contaminated. Thus, for instance, Table 1, Challenge 1 at 24 h for BIT 50 ppm has a value of 5 indicating greater than forty-five (45) cfu were observed. As another example for illustration, Table 1, Challenge 1 at 24 h for dicyandiamide 5,000 ppm + BIT 50 ppm has a value of 1 indicating one (1) through five (5) cfu was observed.

Data set [2] has the same test system. As to the kind of experiment: Repeat in-can challenge test, same conditions (Table 2). The data set is classed as cell-based. As to the method:
as §1, §2

Data set [3] deals with bacteria, fungi, and yeast. To be noted: background statement; cited from earlier work.
For data set [4], the system named is microbial growth. As to the kind of experiment: In-can challenge test of dicyandiamide as adjuvant for MIT (Table 3). In kind it is cell-based. To be noted: for Passing result of challenge test (asterisk on sample) / 1st 24, degree of microbial growth (ranking) / 1st 72, degree of microbial growth (ranking) / 2nd 72, degree of microbial growth (ranking) / 3rd 24, degree of microbial growth (ranking) / 3rd 72, degree of microbial growth (ranking): Dicyandiamide 0.
Description: However, using a combination of MIT and dicyandiamide can allow for effective microbial control at MIT concentrations as low as 20 ppm.
as §2

The conditions of data set [5]: neutral pH; cited from earlier work.
Where [6] appears, read: MIT - 50 30 ppm (MIT 15 ppm as active).
[7] abbreviates: MIT - 50 40 ppm (MIT 20 ppm as active).
Setting [8] is: MIT - 50 50 ppm (MIT 25 ppm as active).
[9] abbreviates: MIT - 50 60 ppm (MIT 30 ppm as active).
Where [10] appears, read: MIT - 50 70 ppm (MIT 35 ppm as active).

Take `O=c1[nH]sc2ccccc12` [BIT, 1,2-benzisothiazolin-3-one]: the “Challenge 1 10% 24 h, degree of microbial growth (ranking)” value (shortened to “Challenge 1 10% 24 h, degree”) in data set [1] (BIT 50 ppm) is 5 (greater than (45) cfu, i.e., the plate was severely contaminated); in data set [1] (BIT 100 ppm) it was 5 (greater than (45) cfu, i.e., the plate was severely contaminated); in data set [2] (BIT 35 ppm), 5c; in data set [2] (BIT 50 ppm), 5c; in data set [2] (BIT 65 ppm) it was 5c; in data set [2] (BIT 75 ppm) it was 5c. Moreover, the “Challenge 1 10% 24 h, degree” value in data set [2] (BIT 100 ppm) is reported as 5c. The “Challenge 1 10% 72 h, degree of microbial growth (ranking)” value (“Challenge 1 10% 72 h, degree” below) is listed as 2 (six (6) through fifteen (15) cfu, i.e., the plate was lightly contaminated) in data set [1] (BIT 50 ppm); 0 in data set [1] (BIT 100 ppm); 5c in data set [2] (BIT 35 ppm); 5c in data set [2] (BIT 50 ppm); 3 (sixteen (16) through thirty (30) cfu, i.e., the plate was moderately contaminated) in data set [2] (BIT 65 ppm); 0 in data set [2] (BIT 75 ppm). Moreover, the “Challenge 1 10% 72 h, degree” value in data set [2] (BIT 100 ppm) is reported as 0. For the same molecule, the “Challenge 2 5% 72 h, degree of microbial growth (ranking)” value (from here on “Challenge 2 5% 72 h, degree”) in data set [1] (BIT 50 ppm) is on record as 5 (greater than (45) cfu, i.e., the plate was severely contaminated); in data set [1] (BIT 100 ppm) it was 0; in data set [2] (BIT 35 ppm) it was 5c; in data set [2] (BIT 50 ppm), 5c; in data set [2] (BIT 65 ppm), 5c; in data set [2] (BIT 75 ppm) it was 5 (greater than (45) cfu, i.e., the plate was severely contaminated). Besides, the “Challenge 2 5% 72 h, degree” value in data set [2] (BIT 100 ppm) is on record as 5 (greater than (45) cfu, i.e., the plate was severely contaminated). For the same molecule, the “Challenge 3 2.5% 24 h, degree of microbial growth (ranking)” value (from here on “Challenge 3 2.5% 24 h, degree”) is recorded as 5c in data set [1] (BIT 50 ppm); 5 (greater than (45) cfu, i.e., the plate was severely contaminated) in data set [1] (BIT 100 ppm); 5c in data set [2] (BIT 35 ppm); 5c in data set [2] (BIT 50 ppm); 5c in data set [2] (BIT 65 ppm); 5c in data set [2] (BIT 75 ppm). Further, the “Challenge 3 2.5% 24 h, degree” value in data set [2] (BIT 100 ppm) is reported as 5c. For the same molecule, the “Challenge 3 2.5% 72 h, dilution plate count” value (“Challenge 3 2.5% 72 h” below) is on record as 7.8×10^6 in data set [1] (BIT 50 ppm); 5.0×10^1 in data set [1] (BIT 100 ppm); 3.0×10^6 in data set [2] (BIT 35 ppm); 6.6×10^6 in data set [2] (BIT 50 ppm); 1.0×10^6 in data set [2] (BIT 65 ppm); 2.8×10^5 in data set [2] (BIT 75 ppm). For the same molecule, the “Challenge 3 2.5% 72 h” value in data set [2] (BIT 100 ppm) is 1.8×10^7. Further, in data set [3], the “Amount required for a reliable and quick biocidal activity” value was at most 500 ppm.
`N#CN=C(N)N` [Dicyandiamide, 2-cyanoguanidine]: in data set [1] (Dicyandiamide 5,000 ppm), the “Challenge 1 10% 24 h, degree” value is 5c; the “Challenge 1 10% 72 h, degree” value was 5c; the “Challenge 2 5% 72 h, degree” value is on record as 5c; the “Challenge 3 2.5% 24 h, degree” value is recorded as 5c. Besides, in data set [1] (Dicyandiamide 5,000 ppm), the “Challenge 3 2.5% 72 h” value is 8.0×10^6. For the same molecule, in data set [1] (Dicyandiamide 10,000 ppm), the “Challenge 1 10% 24 h, degree” value is on record as 5c; the “Challenge 1 10% 72 h, degree” value is reported as 1 (one (1) through five (5) observed colony forming unit (cfu), i.e., the plate was very lightly contaminated); the “Challenge 2 5% 72 h, degree” value is 5 (greater than (45) cfu, i.e., the plate was severely contaminated); the “Challenge 3 2.5% 24 h, degree” value was 5 (greater than (45) cfu, i.e., the plate was severely contaminated). In data set [1] (Dicyandiamide 10,000 ppm), the “Challenge 3 2.5% 72 h” value is given as 4.2×10^6. For the same molecule, the “Efficacy in challenge test compared to the blank” value in data set [1] (dicyandiamide alone, not in combination with BIT, Table 1) is listed as “no significant difference compared to the blank”. Moreover, in data set [2] (Dicyandiamide 5,000 ppm), the “Challenge 1 10% 24 h, degree” value is 5c; the “Challenge 1 10% 72 h, degree” value was 5c; the “Challenge 2 5% 72 h, degree” value was 5c; the “Challenge 3 2.5% 24 h, degree” value is 5c. Besides, in data set [2] (Dicyandiamide 5,000 ppm), the “Challenge 3 2.5% 72 h” value is listed as 2.4×10^7.
Turning to `Cn1sccc1=O` [MIT - 50, 2-methyl-4-isothiazolin-3-one], the entries for the “Passing result of challenge test (asterisk on sample)” value in data set [4] (MIT 30 ppm as active) and in data set [4] (MIT 35 ppm as active) were “MIT - 50 60 ppm (30)*” and “MIT - 50 70 ppm (35)*”, respectively. The “1st 24, degree of microbial growth (ranking)” value is 5 (greater than (45) cfu, i.e., the plate was severely contaminated) in data set [4] (setting [6]); 5 (greater than (45) cfu, i.e., the plate was severely contaminated) in data set [4] (setting [7]); 5 (greater than (45) cfu, i.e., the plate was severely contaminated) in data set [4] (setting [8]); 5 (greater than (45) cfu, i.e., the plate was severely contaminated) in data set [4] (setting [9]); 5 (greater than (45) cfu, i.e., the plate was severely contaminated) in data set [4] (setting [10]). The “1st 72, degree of microbial growth (ranking)” value in data set [4] (setting [6]) is given as 5 (greater than (45) cfu, i.e., the plate was severely contaminated); in data set [4] (setting [7]), 5 (greater than (45) cfu, i.e., the plate was severely contaminated); in data set [4] (setting [8]), 2 (six (6) through fifteen (15) cfu, i.e., the plate was lightly contaminated); in data set [4] (setting [9]), 0; in data set [4] (setting [10]) it was 0. Moreover, the “2nd 72, degree of microbial growth (ranking)” value in data set [4] (setting [6]) was 5 (greater than (45) cfu, i.e., the plate was severely contaminated); in data set [4] (setting [7]), 5 (greater than (45) cfu, i.e., the plate was severely contaminated); in data set [4] (setting [8]), 5 (greater than (45) cfu, i.e., the plate was severely contaminated); in data set [4] (setting [9]), 5 (greater than (45) cfu, i.e., the plate was severely contaminated); in data set [4] (setting [10]) it was 0. Further, the “3rd 24, degree of microbial growth (ranking)” value in data set [4] (setting [6]) was 5 (greater than (45) cfu, i.e., the plate was severely contaminated); in data set [4] (setting [7]), 5 (greater than (45) cfu, i.e., the plate was severely contaminated); in data set [4] (setting [8]), 5 (greater than (45) cfu, i.e., the plate was severely contaminated); in data set [4] (setting [9]) it was 5 (greater than (45) cfu, i.e., the plate was severely contaminated); in data set [4] (setting [10]) it was 5 (greater than (45) cfu, i.e., the plate was severely contaminated). Further, the “3rd 72, degree of microbial growth (ranking)” value in data set [4] (setting [6]) was 5 (greater than (45) cfu, i.e., the plate was severely contaminated); in data set [4] (setting [7]), 5 (greater than (45) cfu, i.e., the plate was severely contaminated); in data set [4] (setting [8]) it was 5 (greater than (45) cfu, i.e., the plate was severely contaminated); in data set [4] (setting [9]), 0; in data set [4] (setting [10]), 0. Moreover, the “MIT concentration displaying passing results” value in data set [4] (MIT alone, no guanidine enhancer) is on record as at least 30 ppm.
With Zinc pyrithione [ZPT], in data set [5], the Solubility in water is reported as 8 ppm.
